Measured values published in article PMC6385123, “Design, Synthesis, Anticancer Evaluation and Molecular Modeling of Novel Estrogen Derivatives” (Molecules, 2019).
Like-named read-outs stand apart in the source and are kept apart here.

Legend:
[1] = tested on: MCF-7 cells; assay: In vitro cytotoxic activity, MTT assay, MCF-7; format: cell-based, human; details: MTT assay, MCF-7 cell line, read-out: IC50 (Mean ± SEM) MCF-7
Experimental: (§1) MCF-7 (human breast cancer) cells, obtained from Sigma-Aldrich Chemie GmbH, Taufkirchen, Germany, were propagated in RPMI-1640 supplemented with 10% heat inactivated FBS, 2 mM L-glutamine, and 1% standard antibiotic solution. Cells were incubated in a 5% CO2 humidified incubator at 37 °C and passaged bi-weekly. The in vitro anti-proliferative activity of the newly synthesized derivatives was assayed using standard MTT technique. Results were expressed as IC50. Experiments were repeated at least in triplicate, to obtain good reproducibility between replicate wells with standard errors below 10%. Furthermore, the cytotoxic effects of the prepared derivatives were evaluated against normal nonmalignant cells, non-tumorigenic MCF-10A, in order to find out if the synthesized derivatives have toxicity against normal cells. Additionally, results were compared with reference compounds (cisplatin and milaplatin) as positive controls.

[2] = tested on: MCF-10A cells; assay: In vitro cytotoxicity against normal non-tumorigenic cells, MTT assay; format: cell-based; details: normal non-tumorigenic MCF-10A cells, read-out: IC50 (Mean ± SEM) MCF-10A
Experimental: as §1

[3] = target: T1, p53 ubiquitination (GST-tagged HDM2) (Homo sapiens, UniProt Q00987); assay: In vitro p53 ubiquitination assay; format: biochemical; details: GST-tagged HDM2, p53, ubiquitin, E1 and E2 (UbcH5B); read-out: IC50 (Mean ± SEM) In Vitro p53 Ubiquitination
T1 construct: GS4b-MDM2 RING beads were prepared as above and were used in place of the full-length MDM2; made in house; host or cells: Escherichia coli BL21
T1 sequence (Q00987 whole entry): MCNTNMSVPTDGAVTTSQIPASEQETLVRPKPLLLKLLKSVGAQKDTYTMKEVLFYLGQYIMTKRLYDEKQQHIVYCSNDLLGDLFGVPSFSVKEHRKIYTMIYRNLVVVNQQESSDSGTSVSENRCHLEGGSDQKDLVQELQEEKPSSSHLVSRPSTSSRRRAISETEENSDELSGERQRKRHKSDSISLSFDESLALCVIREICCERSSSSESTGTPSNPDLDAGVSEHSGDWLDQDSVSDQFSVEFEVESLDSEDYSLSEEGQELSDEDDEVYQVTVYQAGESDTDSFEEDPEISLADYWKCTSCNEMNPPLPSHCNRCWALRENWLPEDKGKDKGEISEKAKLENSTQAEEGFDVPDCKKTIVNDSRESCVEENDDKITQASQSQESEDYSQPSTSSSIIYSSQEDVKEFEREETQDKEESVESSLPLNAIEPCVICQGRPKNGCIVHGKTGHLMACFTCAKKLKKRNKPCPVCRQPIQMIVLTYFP
Experimental: Different prepared derivatives were evaluated for their inhibitory potential against p53 ubiquitination. The method is based on incubating different compounds with GST-tagged HDM2, immobilized on glutathione-Sepharose, p53, ubiquitin, E1 and E2 (UbcH5B) ligases. The buffer contained ATP as detailed by Gomha and Abdelaziz. The reaction products were then resolved by SDSPAGE and p53 ubiquitination and were quantified by Western blotting using an anti-p53 antibody.
Briefly, rGSH-S-transferase-tagged MDM2 (GST-MDM2) was expressed in Escherichia coli BL21 cells using 1 mM isopropyl-thio-b-D-galactoside for 3 h. The enzyme was then purified on glutathione-sepharose beads (Amersham). Beads were washed with Tris (pH 7.5). The reaction contained fluorescent ubiquitin (5 µg; Invitrogen), 50 ng mammalian E1 (Enzo), 200 ng human rUbcH5B E2 (Enzo), 200 ng His-p53 (Enzo) and buffer [50 mM Tris pH 8,2 mM dithiothreitol, 5 mM MgCl2, 2 mM adenosine triphosphate (ATP)]. The MPD-compound or control mixture was dose-titrated onto GS4b-MDM2 beads. Incubation at 37 °C was followed by shaking (1200 rpm, 1 h). The reaction was terminated with 3× sodium dodecyl sulfate sample buffer. Finally, unbound fluorescent ubiquitin was drained and the total fluorescent ubiquitin signal was measured using a plate reader (Safire).
The procedure was performed similar to the aforementioned protocol except that 5 µg unlabeled ubiquitin (Enzo) was used. Following incubation, resolving of reaction products was performed using sodium dodecyl sulfate PGE. Analysis was done by western blotting using anti-p53 DO-1. For the MDM2 RING auto-ubiquitination assay, GS4b-MDM2 RING beads were prepared as above and were used in place of the full-length MDM2.

[4] = tested on: p53 ubiquitination; assay: In vivo ubiquitination of p53 (transfected cells); format: cell-based; details: cells transfected with p53, MDM2, HIS-ubiquitin; exposed 6 h; read-out: IC50 (Mean ± SEM) In Vivo p53 Ubiquitination
Experimental: In vivo ubiquitination of p53 was assayed according to [38] Cells were grown for 24 h (50% confluency) before transfection of 1 µg p53, 4 µg MDM2 and 1 µg HIS-ubiquitin with Gene Juice reagent. Grown for another 20 h, cells were exposed to prepared derivatives or controls for 6 h and MG132 for 4 h, then washed and collected in PBS, where 5% of the solution was kept as an input. The remaining pelleted cells (95% after centrifugation) were lysed in 700 µL of ubiquitin buffer A (6 M guanidinium HCl, 300 mM NaCl, 50 mM phosphate pH 8.0, 100 µg/mL N-ethylmaleimide), and sonicated for 5 min at 20% amplitude. Lysates were incubated overnight with Invitrogen Dynabeads His-Tag matrix and washed once with ubiquitin buffers A, B, C and phosphate buffered saline (ubiquitin buffer B: Mix ubiquitin buffer A and ubiquitin buffer C 1:1; ubiquitin buffer C: 300 mM NaCl, 50 mM phosphate pH 8.0, 100 µg/mL N-ethylmaleimide). The washed lysates were resolved by 8% sodium dodecyl sulfate–polyacrylamide gel electrophoresis, followed by immunoblotting with a p53 (DO-1) antibody.

[5] = target: EGFR (Homo sapiens, UniProt P00533); assay: EGFR kinase inhibition assay; format: biochemical; details: 8 μM ATP, poly(Glu,Tyr)4:1 substrate; read-out: IC50 (Mean ± SEM) EGFR
EGFR, sequence (P00533 25-1210): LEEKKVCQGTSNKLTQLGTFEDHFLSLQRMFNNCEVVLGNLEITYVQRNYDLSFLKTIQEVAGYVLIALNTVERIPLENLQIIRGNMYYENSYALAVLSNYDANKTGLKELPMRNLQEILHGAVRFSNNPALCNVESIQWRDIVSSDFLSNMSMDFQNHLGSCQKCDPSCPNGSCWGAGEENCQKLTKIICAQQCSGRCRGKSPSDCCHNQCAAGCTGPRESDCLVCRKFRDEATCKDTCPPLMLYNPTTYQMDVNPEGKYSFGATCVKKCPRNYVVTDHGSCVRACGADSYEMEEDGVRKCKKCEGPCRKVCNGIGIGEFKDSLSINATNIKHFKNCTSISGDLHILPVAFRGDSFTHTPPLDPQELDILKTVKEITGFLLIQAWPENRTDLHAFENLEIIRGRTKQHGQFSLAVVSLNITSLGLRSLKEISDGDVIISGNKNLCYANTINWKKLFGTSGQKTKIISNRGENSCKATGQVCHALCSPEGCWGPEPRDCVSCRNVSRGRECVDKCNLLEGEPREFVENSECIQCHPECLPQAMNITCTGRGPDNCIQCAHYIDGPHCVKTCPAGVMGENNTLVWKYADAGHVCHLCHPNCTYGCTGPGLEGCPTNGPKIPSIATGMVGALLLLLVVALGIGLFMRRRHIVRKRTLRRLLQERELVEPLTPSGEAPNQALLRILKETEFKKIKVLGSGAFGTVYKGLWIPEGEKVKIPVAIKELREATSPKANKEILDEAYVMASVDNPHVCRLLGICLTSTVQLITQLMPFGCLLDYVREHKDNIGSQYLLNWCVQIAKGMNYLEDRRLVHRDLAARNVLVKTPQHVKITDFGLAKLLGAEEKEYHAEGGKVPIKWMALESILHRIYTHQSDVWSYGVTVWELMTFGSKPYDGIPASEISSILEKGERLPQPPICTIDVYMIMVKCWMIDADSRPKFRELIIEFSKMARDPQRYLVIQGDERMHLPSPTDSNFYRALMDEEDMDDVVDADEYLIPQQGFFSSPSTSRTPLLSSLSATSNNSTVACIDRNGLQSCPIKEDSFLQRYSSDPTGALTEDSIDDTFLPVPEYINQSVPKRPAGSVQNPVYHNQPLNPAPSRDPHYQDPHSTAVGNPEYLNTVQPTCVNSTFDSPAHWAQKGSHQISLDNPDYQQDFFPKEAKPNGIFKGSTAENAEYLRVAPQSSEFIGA
Experimental: (§2) The EGFR and VEGFR-2 kinase activities were assayed as previously described. The assay was performed in 96-well plates pre-coated with 20 μg mL^−1 poly (Glu, Tyr)4:1 (Sigma-Aldrich Chemie GmbH, Taufkirchen, Germany) as a substrate. In each well, 85 μL of an 8 μM ATP solution and 10 μL of the compound were added at varying concentrations. Experiments were repeated three times. Reactions started with 5 μL of different kinases and incubation for 1 h at 37 °C. Plates were 3X-washed with PBS/0.1% Tween 20. Accordingly, 100 μL of anti-phosphotyrosine (PY99; 1:500 dilutions) antibody was added, and plates were incubated for another hour at room temperature. Plates were then 3X-washed, and addition of goat anti-mouse IgG horseradish peroxidase (100 μL; 1:2000 dilution) diluted in T-PBS containing 5 mg mL^−1 BSA followed. Plates were further incubated at room temperature for another hour, and then 3X-washed. Finally, 100 μL (developing solution, 0.03% H2O2, 2 mg mL^−1 o-phenylenediamine/citrate buffer, 0.1 M, pH 5.5) was added and incubation continued until color development. The reaction was stopped by 100 μL of 2M H2SO4, and the absorption was measured at 492 nm using a multiwell spectrophotometer (VERSAmax™). The inhibition rate (%) was calculated using the equation:Inhibition rate (%) = [1 − (A492/A492Control)] × 100%(1)

[6] = target: VEGFR-2 (Homo sapiens, UniProt P35968); assay: VEGFR-2 kinase inhibition assay; format: biochemical; details: 8 μM ATP, poly(Glu,Tyr)4:1 substrate; read-out: IC50 (Mean ± SEM) VEGFR-2
VEGFR-2, sequence (P35968 20-1356): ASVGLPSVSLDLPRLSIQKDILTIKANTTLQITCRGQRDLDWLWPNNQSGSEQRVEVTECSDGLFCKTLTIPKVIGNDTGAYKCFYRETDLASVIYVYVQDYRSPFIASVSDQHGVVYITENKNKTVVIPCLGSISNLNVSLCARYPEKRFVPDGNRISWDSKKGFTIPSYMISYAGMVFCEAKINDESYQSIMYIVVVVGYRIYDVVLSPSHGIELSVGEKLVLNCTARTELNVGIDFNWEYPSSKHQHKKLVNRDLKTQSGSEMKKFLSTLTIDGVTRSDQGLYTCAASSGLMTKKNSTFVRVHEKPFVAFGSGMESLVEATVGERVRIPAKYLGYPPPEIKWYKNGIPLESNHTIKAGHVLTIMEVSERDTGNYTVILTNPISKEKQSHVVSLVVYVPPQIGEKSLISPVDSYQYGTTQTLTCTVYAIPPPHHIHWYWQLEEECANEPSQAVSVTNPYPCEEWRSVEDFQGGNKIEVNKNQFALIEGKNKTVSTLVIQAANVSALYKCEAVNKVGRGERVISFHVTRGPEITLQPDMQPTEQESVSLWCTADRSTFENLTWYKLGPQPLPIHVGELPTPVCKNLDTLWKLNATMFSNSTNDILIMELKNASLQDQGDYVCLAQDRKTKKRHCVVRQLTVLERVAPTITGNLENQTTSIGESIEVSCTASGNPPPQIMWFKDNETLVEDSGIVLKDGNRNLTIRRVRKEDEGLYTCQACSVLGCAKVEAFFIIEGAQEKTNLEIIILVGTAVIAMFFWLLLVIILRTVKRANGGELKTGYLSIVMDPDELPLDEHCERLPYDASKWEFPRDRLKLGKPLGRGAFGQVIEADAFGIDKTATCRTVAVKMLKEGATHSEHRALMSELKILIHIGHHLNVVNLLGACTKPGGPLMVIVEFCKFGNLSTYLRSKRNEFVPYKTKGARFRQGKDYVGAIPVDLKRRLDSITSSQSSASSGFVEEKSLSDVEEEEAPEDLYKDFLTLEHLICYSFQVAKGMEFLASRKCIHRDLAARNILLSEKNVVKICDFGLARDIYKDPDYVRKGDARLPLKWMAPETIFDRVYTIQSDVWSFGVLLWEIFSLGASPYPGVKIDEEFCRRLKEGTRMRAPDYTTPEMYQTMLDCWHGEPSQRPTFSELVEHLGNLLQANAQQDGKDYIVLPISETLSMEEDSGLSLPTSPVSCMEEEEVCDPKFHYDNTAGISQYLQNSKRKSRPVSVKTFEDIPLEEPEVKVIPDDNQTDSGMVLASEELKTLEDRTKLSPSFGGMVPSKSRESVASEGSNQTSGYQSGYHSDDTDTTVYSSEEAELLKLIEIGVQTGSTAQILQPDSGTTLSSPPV
Experimental: as §2

Compound | IC50 [1] [µM] | IC50 [2] [µM] | IC50 ([1]; Homo sapiens, MCF7) [µM] | IC50 ([2]; Homo sapiens) [µM] | IC50 [3] [µM] | IC50 [4] [µM] | IC50 [5] [µM] | IC50 [6] [µM] | melting point [°C]
N.N.[Cl][Pt][Cl] [Cisplatin, reference compound] | 13.34 ± 0.11 | 9.55 ± 0.54 |  |  |  |  |  |  | 
CC12CCC3c4ccc(O)cc4CCC3C1CC1=C2NC(=O)NC1c1ccccc1Cl (centres unmarked) [Compound 3a, 2′-Oxo-6′-(2-chlorophenyl)-estra-1(10),2,4,16(17)-tetraien-[17,16-d]pyrimidino-3-ol] |  |  | 35.7 ± 0.4 | 401 ± 11.6 | 47.6 ± 0.6 | 0.6 ± 0.0086 | 0.127 ± 0.0037 | 0.047 ± 0.003 | 266 to 268
CC12CCC3c4ccc(O)cc4CCC3C1CC1=C2NC(=O)NC1c1ccc(Cl)cc1 (centres unmarked) [Compound 3b, Oxo-6′-(4-chlorophenyl)-estra-1(10),2,4,16(17)-tetraien-[17,16-d]pyrimidino-3-ols] |  |  | 38.6 ± 0.87 | 422 ± 13.8 | 53.6 ± 0.78 | 0.63 ± 0.0095 | 0.155 ± 0.0051 | 0.048 ± 0.0014 | 308 to 310
CC12CCC3c4ccc(O)cc4CCC3C1CC1=C2NC(=S)NC1c1ccccc1Cl (centres unmarked) [Compound 4a, 2′-Thione-6′-(2-chlorophenyl)-estra-1(10),2,4,16(17)-tetraien-[17,16-d]pyrimidine-3-ol] |  |  | 28.64 ± 0.28 | 302 ± 8.86 | 36.6 ± 0.58 | 0.45 ± 0.0085 | 0.095 ± 0.0028 | 0.037 ± 0.0026 | 290 to 292
CC12CCC3c4ccc(O)cc4CCC3C1CC1=C2NC(=S)NC1c1ccc(Cl)cc1 (centres unmarked) [Compound 4b, 2’-Thione-6’-(4-chlorophenyl)-estra-1(10),2,4,16(17)-tetraien-[17,16-d]-pyrimidine-3-ol] |  |  | 31.8 ± 0.39 | 311 ± 9.59 | 45.8 ± 0.49 | 0.57 ± 0.0097 | 0.098 ± 0.0009 | 0.043 ± 0.0018 | 333 to 335
CC12CCC3c4ccc(O)cc4CCC3C1CC1=C2NC(=N)NC1c1ccc(Cl)cc1 (centres unmarked) [Compound 5b, 2′-Imino-6′-(4-chlorophenyl)-estra-1(10),2,4,16(17)-tetraien-[17,16-d]pyrimidino-3-ol] |  |  | 22.5 ± 0.24 | 235 ± 7.76 | 27.6 ± 0.34 | 0.31 ± 0.0053 | 0.088 ± 0.0013 | 0.029 ± 0.0003 | 326 to 328
CC12CCC3c4ccc(O)cc4CCC3C1CC1=C2NC(=NC#N)NC1c1ccccc1Cl (centres unmarked) [Compound 6a, 2′-Cyanoimino-6′-(2-chlorophenyl)-estra-1(10),2,4,16(17)-tetraien-[17,16-d]pyrimidino-3-ol] |  |  | 24.57 ± 0.16 | 244 ± 7.78 | 28.47 ± 0.25 | 0.32 ± 0.0063 | 0.09 ± 0.0006 | 0.031 ± 0.0041 | 223
CC12CCC3c4ccc(O)cc4CCC3C1CC1=C2NC(=NC#N)NC1c1ccc(Cl)cc1 (centres unmarked) [Compound 6b, 2′-Cyanoimino-6′-(4-chlorophenyl)-estra-1(10),2,4,16(17)-tetraien-[17,16-d]-pyrimidino-3-ol] |  |  | 26.46 ± 0.17 | 277 ± 8.23 | 29.5 ± 0.36 | 0.42 ± 0.0074 | 0.091 ± 0.0025 | 0.033 ± 0.001 | 282 to 284
CC12CCC3c4ccc(O)cc4CCC3C1CC1C2=NN(C(N)=O)C1c1ccccc1Cl (centres unmarked) [Compound 7a, 1-Carbamoyl-1′H-(2’H)-5′-(2-chlorophenyl)-estra-1(10),2,4-trien-[17,16-c]pyrazoline-3-ol] |  |  | 41.1 ± 0.84 | 466 ± 17.3 | 66.7 ± 0.86 | 0.86 ± 0.0068 | 0.188 ± 0.0016 | 0.055 ± 0.0013 | 298 to 300
CC12CCC3c4ccc(O)cc4CCC3C1CC1C2=NN(C(N)=O)C1c1ccc(Cl)cc1 (centres unmarked) [Compound 7b, 1-Carbamoyl-1’H-(2’H)-5’-(4-chlorophenyl)-estra-1(10),2,4-trien-[17,16-c]pyrazoline-3-ol] |  |  | 46.2 ± 0.93 | 512 ± 16.6 | 77.6 ± 0.97 | 0.89 ± 0.0099 | 0.227 ± 0.0004 | 0.057 ± 0.0005 | 248 to 250
CC12CCC3c4ccc(O)cc4CCC3C1CC1C2=NN(C(N)=S)C1c1ccccc1Cl (centres unmarked) [Compound 8a, 1-Thiocarbamoyl-1′H-(2′H)-5′-(2-chlorophenyl)-estra-1(10),2,4-trien-[17,16-c]pyrazoline-3-ol] |  |  | 39.5 ± 0.75 | 435 ± 14.6 | 55.4 ± 0.69 | 0.74 ± 0.0087 | 0.166 ± 0.0028 | 0.051 ± 0.0017 | 294 to 296
CC12CCC3c4ccc(O)cc4CCC3C1CC1C2=NN(C(N)=S)C1c1ccc(Cl)cc1 (centres unmarked) [Compound 8b, 1-Thiocarbamoyl-1′H-(2′H)-5′-(4-chlorophenyl)-estra-1(10),2,4-trien-[17,16-c]pyrazoline-3-ol] |  |  | 40.4 ± 0.95 | 446 ± 15.4 | 64.6 ± 0.78 | 0.82 ± 0.0078 | 0.177 ± 0.0041 | 0.053 ± 0.0023 | 252 to 256
Oc1cc(O)c2cc(O)c(-c3cc(O)c(O)c(O)c3)[o+]c2c1 [Delphinidin, reference compound] |  |  |  |  |  |  | 6.27 ± 0.00076 | 5.09 ± 0.0012 | 
Milaplatin [reference compound] | 18.43 ± 0.13 | 18.3 ± 0.34 |  |  |  |  |  |  | 
